{"source": "paper PMC11341980", "about": "“Dual TTK/PLK1 inhibition has potent anticancer activity in TNBC as monotherapy and in combination” (Frontiers in Oncology, 2024)", "key": {"KT-associated BubR1": {"system": "KT-associated BubR1", "assay": "Immunofluorescence of BubR1 at kinetochores in HT29 cells", "type": "cell-based", "details": "nocodazole-blocked mitotic HT29 cells, 1 hour, GI50 concentration", "experimental": "Immunoblotting, SAC co-immunoprecipitation assays and immunofluorescence microscopy were performed using standard procedures as outlined in the Supplementary Information .\nCells were seeded on 13-mm glass coverslips in full medium and left to adhere O/N. After the appropriate treatments, cells were fixed with ice-cold 100% methanol for 5 min at -20°C and then rehydrated in PBS for 10 min. Coverslips were blocked for 30 min with 3% BSA (w/v) in PBS (BP) and then incubated with a 1:100 or 1:1000 dilution of BubR1 or CENP-C primary antibodies in BP, respectively, for 1 h in a moist environment. […] Images were projected (maximum intensity projection) using the NIS Elements AR software (Nikon) and quantification was performed using the General Analysis 2 tool. The quantification process comprised the following steps: selection of mitotic cells via intensity measurement of a threshold DAPI signal; generation of a kinetochore mask based on the intensity of bright spots (CENPC signal) inside the selected nuclei; generation of a tertiary mask for the BubR1 signal at kinetochores and BubR1 background measurements in the selected nuclei; export of reference images and signal intensities per cell."}, "HT29 cells [1]": {"system": "HT29 cells", "assay": "Cell growth assay, GI50s used for SAC analyses", "type": "cell-based", "details": "Homo sapiens, HT-29; 120 h cell growth assay", "experimental": "Cell lines were seeded in appropriate culture medium into 96-well plates and 9 serial compound dilutions (0.004 – 1 μM) were added 24 h later for 120 h. Residual cells were stained with crystal violet or YO-PRO (Molecular Probes, #Y-3603). GI50 values were calculated by fitting the data to a sigmoidal dose–response model with a variable slope using GraphPad Prism software after subtraction of the starting control signal."}, "MDA-MB-231 xenograft": {"system": "MDA-MB-231 xenograft", "design": "method as in PMID 28270606", "details": "daily dosing, MDA-MB-231 xenografted mice; cited from earlier work"}, "BR1282 TNBC PDX [2]": {"system": "BR1282 TNBC PDX", "assay": "BR1282 PDX combination with carboplatin", "type": "in vivo, mice", "details": "carboplatin 60 mg/kg, IV, QW", "experimental": "Samples were snap frozen and stored at -80 °C. […] Carboplatin was prepared in 5% glucose in pure water."}, "[3]": {"system": "SK-OV-3 ovarian cell-derived xenograft", "assay": "SK-OV-3 xenograft combination study with carboplatin", "details": "carboplatin 60 mg/kg, QW, IV alone", "experimental": "(§1) Animal studies were performed by Charles-River Laboratories (Wilmington, Massachusetts, USA; MDA-MB-231 xenograft experiments) or Crown Biosciences Inc, (Taicang, China; SK-OV-3 xenograft and TNBC PDX screening experiments). All studies were performed in adherence with local ethical rules.\n5x10^6 MDA-MB-231 cells were injected subcutaneously (s.c.) in the flank of NCr nude mice (n=8-15/group for efficacy experiments, n=2-3/group for tumor pharmacodynamic evaluation), 1x10^7 SK-OV-3 cells were injected s.c. in the flank of Balb/c nude mice (n=8/group) and specific PDX tumor fragments (3x3x3 mm^3) were inoculated s.c. in the flank of Balb/c nude mice or NOD/SCID mice (n=4-5/group for efficacy screening and tumor pharmacodynamic experiments, n=8/group for combination experiments). Mice were randomly grouped based on a mean tumor volume (TV) of 100-200 mm^3. For dedicated pharmacodynamic studies, treatment began with TVs of ~400 mm^3. Mice were culled when individual tumors exceeded 1500 mm^3 or if the body-weight loss (BWL) was >15% for 3 consecutive days or reached 20%. Dosing holidays were given to allow recovery for BWL >10%. When the endpoint was reached, mice were culled and plasma and tissue samples obtained. Samples were snap frozen and stored at -80 °C. In some cases, tumors were formalin-fixed and paraffin-embedded (FFPE) following standard procedures. […]"}, "BR1282 TNBC PDX [4]": {"system": "BR1282 TNBC PDX", "details": "paclitaxel 15 mg/kg, QW, IV alone", "experimental": "as §1\n5x10^6 MDA-MB-231 cells were injected subcutaneously (s.c.) in the flank of NCr nude mice (n=8-15/group for efficacy experiments, n=2-3/group for tumor pharmacodynamic evaluation), 1x10^7 SK-OV-3 cells were injected s.c. in the flank of Balb/c nude mice (n=8/group) and specific PDX tumor fragments (3x3x3 mm^3) were inoculated s.c. in the flank of Balb/c nude mice or NOD/SCID mice (n=4-5/group for efficacy screening and tumor pharmacodynamic experiments, n=8/group for combination experiments). Mice were randomly grouped based on a mean tumor volume (TV) of 100-200 mm^3. For dedicated pharmacodynamic studies, treatment began with TVs of ~400 mm^3. Mice were culled when individual tumors exceeded 1500 mm^3 or if the body-weight loss (BWL) was >15% for 3 consecutive days or reached 20%. Dosing holidays were given to allow recovery for BWL >10%. When the endpoint was reached, mice were culled and plasma and tissue samples obtained. Samples were snap frozen and stored at -80 °C. In some cases, tumors were formalin-fixed and paraffin-embedded (FFPE) following standard procedures. […] Paclitaxel (6 mg/mL) was prepared using the clinical formulation (Cremophor-EL) and diluted in 0.9% saline just prior to use. Carboplatin was prepared in 5% glucose in pure water. Dosing and combination regimens for each specific experiment are outlined in the text.\nBW is presented as the % ΔBW and as the fractional-change (endpoint/treatment-start) for each group. As an assessment of synergy, the Clarke-Combination-Index (CCI) was applied ([32]) where a CCI of <-0.1 was considered synergistic, >+0.1 antagonistic, and in-between, additive.\nPaclitaxel (15 mg/kg) was administered IV QW to BR1282 PDX-bearing mice. […]"}, "HT29 cells [5]": {"system": "HT29 cells", "assay": "Flow cytometry cell cycle analysis", "type": "cell-based", "details": "nocodazole treatment", "experimental": "Cells were fixed in 70% high grade ethanol, washed in PBS, incubated in propidium iodide (PI) solution (50 μg/mL PI and 0.5 mg/mL RNAse A, Sigma-Aldrich, in PBS) for 30 min and analyzed using a BD FACSCanto II flow cytometer (BD Biosciences)."}}, "note": "Marks after values point to notes of the source that are not given here."}
{"smiles": "Cc1cc(-c2cnn3c(NC[C@H]4C[C@@](C)(O)C4)cc(Oc4cccnc4)nc23)ccc1C(=O)NC1CC1", "note": "[CFI-402257]", "values": [{"measurement": "reduction in KT-associated BubR1", "setting": "KT-associated BubR1", "value": "Some reduction"}, {"measurement": "GI50", "setting": "HT29 cells [1]", "value": "31 to 38", "unit": "nM"}, {"measurement": "maximum tumor growth inhibition", "setting": "MDA-MB-231 xenograft", "value": 89, "unit": "%"}]}
{"smiles": "N.N.O=C([O-])C1(C(=O)[O-])CCC1.[Pt+2]", "note": "[Carboplatin]", "values": [{"measurement": "antitumor activity of monotherapy", "setting": "BR1282 TNBC PDX [2]", "value": "without activity"}, {"measurement": "Efficacy ΔT/C (day 23)", "setting": "[3]", "value": 0.72}, {"measurement": "Tolerability ΔT/C (day 23)", "setting": "[3]; body weight", "value": 0.97}]}
{"smiles": "CC(=O)O[C@H]1C(=O)[C@@]2(C)[C@H]([C@H](OC(=O)c3ccccc3)[C@]3(O)C[C@H](OC(=O)[C@H](O)[C@@H](NC(=O)c4ccccc4)c4ccccc4)C(C)=C1C3(C)C)[C@]1(OC(C)=O)CO[C@@H]1C[C@@H]2O", "note": "[Paclitaxel]", "values": [{"measurement": "Efficacy ΔT/C (day 16)", "setting": "BR1282 TNBC PDX [4]; Study 1", "value": 0.24}, {"measurement": "Regressions (%) (end of treatment day)", "setting": "BR1282 TNBC PDX [4]; Study 1, day 37, regressions in 1/8 mice", "value": "30 (37)* %"}, {"measurement": "Efficacy ΔT/C (day 13)", "setting": "BR1282 TNBC PDX [4]; Study 2", "value": 0.48}]}
{"smiles": "CN1CCN(c2ccc(OC(F)(F)F)c(Nc3ncc4c(n3)-c3c(c(C(N)=O)nn3CCO)CC4)c2)CC1", "note": "[onvansertib]", "values": [{"measurement": "reduction in KT-associated BubR1", "setting": "KT-associated BubR1", "value": "minor effects"}, {"measurement": "GI50", "setting": "HT29 cells [1]", "value": 14, "unit": "nM"}]}
{"smiles": "COC(=O)Nc1nc2ccc(C(=O)c3cccs3)cc2[nH]1", "note": "[nocodazole]", "values": [{"measurement": "accumulation in G2/M of the cell cycle", "setting": "HT29 cells [5]", "value": 67, "unit": "%"}]}
